Experimental data published in US6623741B1, “Methods and compositions for inhibition of membrane fusion-associated events including RSV transmission” (Trimeris, Inc., priority 2000, dated 2003).

System: RSV
Experiment: Anti-RSV antiviral activity assay (syncytial formation, HEp2 cells)
Type: cell-based, respiratory syncytial virus
Conditions: purified peptides
Protocol: Anti-RSV Antiviral Activity Assays:
The assay utilized herein tested the ability of the peptides to disrupt the ability of HEp2 cells acutely infected with RSV (i.e., cells which are infected with a multiplicity of infection of greater than 2) to fuse and cause syncytial formation on a monolayer of uninfected an uninfected line of Hep-2 cells. The lower the observed level of fusion, the greater the antiviral activity of the peptide was determined to be. […]
After incubation, cells in control wells were checked for fusion centers, media was removed from the wells, followed by addition, to each well, of either Crystal Violet stain or XTT. […] The number of syncytia per well were then counted, using a dissecting microscope.
With respect to XTT (2,3-bis[2-Methoxy-4-nitro-5-sulfophenyl]-2H-tetrazolium-5-carboxyanilide inner salt), 50 μl XTT (1 mg/ml in RPMI buffered with 100 mM HEPES, pH 7.2-7.4, plus 5% DMSO) were added to each well. The OD450/690 was measured (after blanking against growth medium without cells or reagents, and against reagents) according to standard procedures. […]

With `CC[C@H](C)[C@H](NC(=O)[C@H](Cc1ccccc1)NC(=O)[C@H](C)NC(=O)[C@H](CC(C)C)NC(=O)[C@H](CO)NC(=O)[C@H](CCC(N)=O)NC(=O)[C@H](CC(N)=O)NC(=O)[C@@H](NC(=O)[C@H](CCCCN)NC(=O)[C@H](CCC(=O)O)NC(=O)[C@H](CC(N)=O)NC(=O)[C@@H](NC(=O)[C@H](CCC(N)=O)NC(=O)[C@H](CO)NC(=O)[C@@H](NC(=O)[C@H](CO)NC(=O)[C@H](C)NC(=O)[C@H](CC(=O)O)NC(=O)[C@H](Cc1ccccc1)NC(=O)[C@H](CCC(=O)O)NC(=O)[C@H](CC(=O)O)NC(=O)[C@H](CO)NC(=O)[C@@H]1CCCN1C(=O)[C@H](Cc1ccccc1)NC(=O)[C@@H](NC(C)=O)C(C)C)[C@@H](C)CC)C(C)C)[C@@H](C)CC)C(=O)N[C@@H](CCCNC(=N)N)C(=O)N[C@@H](CCCCN)C(=O)N[C@@H](CO)C(=O)N[C@@H](CC(=O)O)C(=O)N[C@@H](CCC(=O)O)C(=O)N[C@@H](CC(C)C)C(=O)N[C@@H](CC(C)C)C(=O)N[C@@H](Cc1c[nH]cn1)C(=O)N[C@@H](CC(N)=O)C(=O)N[C@H](C(N)=O)C(C)C` [Peptide T112] the “anti-RSV antiviral activity (in words)” value was “substantial antiviral activity”.
